In assay [1] the test system is THP-1 cells. Nature of the assay: LPS-induced cytokine production assay, TNFα. It counts as cell-based. The note with it: Homo sapiens, 300 ng/mL LPS, 5 hours, read-out: TNF (5 h). The protocol: (§1) Provided compounds were also assayed in an LPS (Lipopolysacharide) or R848 (TLR-7 agonist) induced cytokine (e.g. TNFα and IL8) production assay in THP-1 cells, human peripheral blood mononuclear cells (hPBMC), and whole blood. The exemplary protocol for this assay in THP-1 cells was as follows below.
(§2) THP-1 cells from ATCC (TIB-202) were cultured in RPMI Medium 1640 (Invitrogen, Cat No. A10491-01), 10% fetal bovine serum (Invitrogen, Cat No. 10099141, Lot No. 8172882) containing 100 U/mL Penicillin, 100 μg/mL streptomycin (Invitrogen, Cat No. 15140-122), and 50 uM 2-Mercaptoethanol (Invitrogen, Cat No. 21985023). LPS-EK ultra pure (Invivogen, Cat No. tlrl-peklps) was used to induce IL8 and TNFα production, that is detected in the cell culture supernatant by IL8 HTRF kit (Cisbio, Cat No. 62IL8PEB) and TNFα HTRF kit (Cisbio, Cat No. 62TNFPEB), as per manufacturer instructions. Cells were cultured in 96 well assay plates at 100,000 cells per well, and compounds diluted in final 0.3% DMSO were pre-incubated with cells for 1 hour prior to stimulation with 300 ng/mL LPS. Cytokine production in cell supernatant was measured at 5 hours for TNFα and IL8 production, and for 16 hours for IL8 production and assessment of cell viability.

Another assay addresses T1, IRAK4 (Homo sapiens, UniProt Q9NWZ3).
T1 construct: purchased CARNA Bioscience 09-145
T1 sequence (Q9NWZ3 1-460): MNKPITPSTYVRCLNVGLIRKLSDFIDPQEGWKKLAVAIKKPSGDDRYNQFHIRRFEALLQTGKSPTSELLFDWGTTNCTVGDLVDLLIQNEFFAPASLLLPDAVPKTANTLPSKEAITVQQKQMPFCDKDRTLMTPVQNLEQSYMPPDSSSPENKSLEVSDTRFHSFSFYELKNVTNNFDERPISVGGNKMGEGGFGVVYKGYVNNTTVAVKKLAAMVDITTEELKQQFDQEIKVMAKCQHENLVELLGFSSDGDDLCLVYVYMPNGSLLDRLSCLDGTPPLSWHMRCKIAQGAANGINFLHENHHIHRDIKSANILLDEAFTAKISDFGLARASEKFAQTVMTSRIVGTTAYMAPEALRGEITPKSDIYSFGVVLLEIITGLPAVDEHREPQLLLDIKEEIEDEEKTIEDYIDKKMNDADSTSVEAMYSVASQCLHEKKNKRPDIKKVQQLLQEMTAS
Nature of the assay: IRAK-4 activity inhibition assay (Caliper). It counts as biochemical. To be noted: 3.5 nM IRAK4, 37 μM ATP, 1.5 μM Peptide 8. The protocol: A 1× kinase base buffer was prepared from 50 mM HEPES, pH 7.5 and 0.0015% Brij-35. A stop buffer was prepared from 100 mM HEPES, pH 7.5, 0.015% Brij-35, 0.2% Coating Reagent #3, and 50 mM EDTA.
Test compound was diluted to 50× of the final desired highest inhibitor concentration in reaction by 100% DMSO. 100 ul of this compound dilution was transferred to a well in a 96-well plate.
Test compound was serially diluted by transferring 30 μl to 60 μl of 100% DMSO in the next well and so forth for a total of 10 concentrations. 100 μl of 100% DMSO was added to two empty wells for no compound control and no enzyme control in the same 96-well plate.
A new 96-well plate was marked as intermediate plate. 5 μl of compound serial dilution was transferred from source plate to the corresponding wells of the intermediate plate. 45 μl of 1× kinase base buffer (KB buffer) was added to each well of the intermediate plate. The intermediate plate was placed for 10 min on a shaker.
5 μl of each well was transferred from the 96-well intermediate plate to a 384-well plate in duplicates. For example, A1 of the 96-well plate is transferred to A1 and A2 of the 384-well plate. A2 of the 96-well plate is transferred to A3 and A4 of the 384-well plate, and so on.
IRAK4 and DTT in 1× kinase base buffer was added. The 2.5× enzyme mix contained 8.8 nM IRAK4 and 5 mM DTT.
Peptide 8, ATP, MgCl2 and MnCl2 were added in the 1× kinase base buffer. The 2.5× peptide mix contained 3.75 μM peptide 8, 92.5 μM ATP, 12.5 mM MgCl2 and 2.5 mM MnCl2.
Assay plate already contained 5 μl of compound in 10% DMSO. Added 10 μl of 2.5× enzyme solution to each well of the 384-well assay plate, except no enzyme control wells. The final concentration of IRAK4 in reaction was 3.5 nM. Added 10 μl of 1× kinase base buffer to no enzyme control wells in the assay plate. Incubated at room temperature for 10 min.
Added 10 μl of 2.5× peptide solution to each well of the 384-well assay plate. The final concentration of Peptide 8 and ATP was 1.5 μM and 37 μM, respectively. Incubated at 28° C. for 40 minutes. Added 25 μl of stop buffer to stop reaction. Collected data on Caliper.
Copied conversion % data from Caliper program. Converted conversion % values to percent inhibition values. Percent inhibition=(max−conversion %)/(max−min)*100, where “max” means the conversion % of DMSO control and “min” means the conversion % of no enzyme control.

Assay [2] concerns THP-1 cells. Nature of the assay: LPS-induced cytokine production assay, IL8. It counts as cell-based. The note with it: Homo sapiens, 300 ng/mL LPS, 16 hours, read-out: IL-8 (16 h). Here is the method: as §1, §2

Each structure is given as a SMILES string. Counter-ions that a name gives are not always drawn. Some results are limits rather than exact numbers.

As to `NC(=O)c1ccc2sc3ncnc(N[C@H]4CC[C@H](N5CCOCC5)CC4)c3c2c1` [I-1, 4-(((1r,4r)-4-morpholinocyclohexyl)amino)benzo[4,5]thieno[2,3-d]pyrimidine-6-carboxamide], the IC50 with THP-1 cells [1] was not above 1000 nM; at IRAK4 it was not above 100 nM; in the assay on THP-1 cells [2], not above 1000 nM. On to `CN(C)[C@H]1CC[C@H](Nc2ncnc3sc4ccccc4c23)CC1` [I-2, (1r,4r)-N1-(benzo[4,5]thieno[2,3-d]pyrimidin-4-yl)-N4,N4-dimethylcyclohexane-1,4-diamine], for which the values for the IC50 in the assay with THP-1 cells [1], at IRAK4 and in the assay with THP-1 cells [2] were not above 1000 nM, not above 100 nM and not above 1000 nM, respectively.

With `CN(CC(=O)N1CCCC1)[C@H]1CC[C@H](Nc2ncnc3sc4ccccc4c23)CC1` [I-3, 2-(((1r,4r)-4-(benzo[4,5]thieno[2,3-d]pyrimidin-4-ylamino)cyclohexyl)(methyl)amino)-1-(pyrrolidin-1-yl)ethanone], the IC50 in the assay with THP-1 cells [1] was not below 1000 nM; against IRAK4, not above 100 nM; in the assay with THP-1 cells [2], not above 1000 nM. `c1ccc2c(c1)sc1ncnc(N[C@H]3CC[C@H](N4CCOCC4)CC3)c12` [I-4, N-((1r,4r)-4-morpholinocyclohexyl)benzo[4,5]thieno[2,3-d]pyrimidin-4-amine]: the IC50 in the assay on THP-1 cells [1] was not above 1000 nM; against IRAK4 it was not above 100 nM; in the assay with THP-1 cells [2], not above 1000 nM.

Consider `CCOC(=O)c1ccc2sc3ncnc(N[C@H]4CC[C@H](N(C)C)CC4)c3c2c1` [I-5, ethyl 4-(((1r,4r)-4-(dimethylamino)cyclohexyl)amino)benzo[4,5]thieno[2,3-d]pyrimidine-6-carboxylate], for which the results for the IC50 in the assay with THP-1 cells [1], against IRAK4 and with THP-1 cells [2] were not above 1000 nM, not above 100 nM and not above 1000 nM, respectively. On to `CN(C)[C@H]1CC[C@H](Nc2ncnc3sc4ccc(C(N)=O)cc4c23)CC1` [I-6, 4-(((1r,4r)-4-(dimethylamino)cyclohexyl)amino)benzo[4,5]thieno[2,3-d]pyrimidine-6-carboxamide], for which the values for the IC50 in the assay with THP-1 cells [1], against IRAK4 and in the assay on THP-1 cells [2] were not below 1000 nM, not above 100 nM and not above 1000 nM, respectively.

Turning to `CN(C)[C@H]1CC[C@H](Nc2ncnc3sc4ccc(CO)cc4c23)CC1` [I-7, (4-(((1r,4r)-4-(dimethylamino)cyclohexyl)amino)benzo[4,5]thieno[2,3-d]pyrimidin-6-yl)methanol], the values for the IC50 in the assay with THP-1 cells [1], against IRAK4 and with THP-1 cells [2] were not below 1000 nM, 100 to 1000 nM and not above 1000 nM, respectively. `CCOC(=O)c1ccc2sc3ncnc(N[C@H]4CC[C@H](N5CCOCC5)CC4)c3c2c1` [I-8, Ethyl 4-(((1r,4r)-4-morpholinocyclohexyl)amino)benzo[4,5]thieno[2,3-d]pyrimidine-6-carboxylate] had an IC50 at IRAK4 of 100 to 1000 nM. In turn, `OCc1ccc2sc3ncnc(N[C@H]4CC[C@H](N5CCOCC5)CC4)c3c2c1` [I-10, (4-(((1r,4r)-4-morpholinocyclohexyl)amino)benzo[4,5]thieno[2,3-d]pyrimidin-6-yl)methanol] returned an IC50 against IRAK4 of 100 to 1000 nM. Same read-out and setting: for `N[C@H]1CC[C@H](Nc2ncnc3sc4ccccc4c23)CC1` [I-11, (1r,4r)-N1-(benzo[4,5]thieno[2,3-d]pyrimidin-4-yl)cyclohexane-1,4-diamine hydrochloride] the value was 100 to 1000 nM. As for `CN(C)[C@H]1CC[C@H](Oc2ncnc3sc4ccccc4c23)CC1` [I-12, (1r,4r)-4-(benzo[4,5]thieno[2,3-d]pyrimidin-4-yloxy)-N,N-dimethylcyclohexanamine], the IC50 against IRAK4 is 100 to 1000 nM.

The compound `OCCc1ccc2sc3ncnc(O[C@H]4CC[C@H](N5CCOCC5)CC4)c3c2c1` [I-13, 2-(4-(((1r,4r)-4-morpholinocyclohexyl)oxy)benzo[4,5]thieno[2,3-d]pyrimidin-6-yl)ethanol] returned an IC50 against IRAK4 of 100 to 1000 nM. Still for that read-out and setting: for `CNC(=O)c1ccc2sc3ncnc(N[C@H]4CC[C@H](N(C)C)CC4)c3c2c1` [I-14, 4-(((1r,4r)-4-(dimethylamino)cyclohexyl)amino)-N-methylbenzo[4,5]thieno[2,3-d]pyrimidine-6-carboxamide] the value was 100 to 1000 nM; for `OCCc1ccc2sc3ncnc(N[C@H]4CC[C@H](N5CCOCC5)CC4)c3c2c1` [I-15, 2-(4-(((1r,4r)-4-morpholinocyclohexyl)amino)benzo[4,5]thieno[2,3-d]pyrimidin-6-yl)ethanol], 100 to 1000 nM; for `c1ccc2c(c1)sc1ncnc(O[C@H]3CC[C@H](N4CCOCC4)CC3)c12` [I-16, 4-((1r,4r)-4-(benzo[4,5]thieno[2,3-d]pyrimidin-4-yloxy)cyclohexyl)morpholine], 100 to 1000 nM. On to `CCNC(=O)c1ccc2sc3ncnc(N[C@H]4CC[C@H](N(C)C)CC4)c3c2c1` [I-17, 4-(((1r,4r)-4-(dimethylamino)cyclohexyl)amino)-N-ethylbenzo[4,5]thieno[2,3-d]pyrimidine-6-carboxamide], for which the IC50 at IRAK4 lay within 100 to 1000 nM.

`NC(=O)Cc1ccc2sc3ncnc(N[C@H]4CC[C@H](N5CCOCC5)CC4)c3c2c1` [I-18, 2-(4-(((1r,4r)-4-morpholinocyclohexyl)amino)benzo[4,5]thieno[2,3-d]pyrimidin-6-yl)acetamide]: the IC50 on IRAK4 was 1000 to 10000 nM.

As to `CN(C)C(=O)c1ccc2sc3ncnc(N[C@H]4CC[C@H](N(C)C)CC4)c3c2c1` [I-19, 4-(((1r,4r)-4-(dimethylamino)cyclohexyl)amino)-N,N-dimethylbenzo[4,5]thieno[2,3-d]pyrimidine-6-carboxamide], the IC50 against IRAK4 fell in the range of 1000 to 10000 nM. Same read-out and setting: as for `CN(C)C(=O)c1ccc2sc3ncnc(N[C@H]4CC[C@H](N5CCOCC5)CC4)c3c2c1` [I-20, N,N-dimethyl-4-(((1r,4r)-4-morpholinocyclohexyl)amino)benzo[4,5]thieno[2,3-d]pyrimidine-6-carboxamide], the figure is 1000 to 10000 nM.

For `CCOC(=O)Cc1ccc2sc3ncnc(N[C@H]4CC[C@H](N5CCOCC5)CC4)c3c2c1` [I-21, Ethyl 2-(4-(((1r,4r)-4-morpholinocyclohexyl)amino)benzo[4,5]thieno[2,3-d]pyrimidin-6-yl)acetate], at IRAK4, the IC50 was 1000 to 10000 nM. The compound `CCOC(=O)c1cccc2sc3ncnc(N[C@H]4CC[C@H](N(C)C)CC4)c3c12` [I-22, ethyl 4-(((1r,4r)-4-(dimethylamino)cyclohexyl)amino)benzo[4,5]thieno[2,3-d]pyrimidine-5-carboxylate] returned an IC50 on IRAK4 not below 10000 nM. On the same count and under the same terms, for `CN(C)[C@H]1CC[C@H](Nc2ncnc3sc4cccc(CO)c4c23)CC1` [I-23, (4-(((1r,4r)-4-(dimethylamino)cyclohexyl)amino)benzo[4,5]thieno[2,3-d]pyrimidin-5-yl)methanol] the value was not below 10000 nM.

The record behind these values is patent publication US9481687B2, “IRAK inhibitors and uses thereof” (Nimbus Iris, Inc., priority 2012, dated 2016).
